Laboratory results: ChEMBL document CHEMBL1201862, “PubChem BioAssay data set” (2004)
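Grown in 96-well plates, cells were treated for 48 hours with each compound at five concentrations. Insufficient inhibition: endpoint recorded as highest concentration tested. Abbreviation: GI50, concentration required for 50% inhibition of growth.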 Active and inactive are the calls of the source. Rule as the data show it: active = GI50 up to about 1.1 µM and inactive = higher.

How the values were obtained:
Test in all cases: growth of human tumour cells (NCI), 48 h
NCI-H226 = tested on: NCI-H226
HOP-62 = tested on: HOP-62
A498 = tested on: A498
U-251 = tested on: U-251
PC-3 = tested on: PC-3
SF-268 = tested on: SF-268
BT-549 = tested on: BT-549
SF-295 = tested on: SF-295
HCC 2998 = tested on: HCC 2998
OVCAR-8 = tested on: OVCAR-8
MDA-MB-231 = tested on: MDA-MB-231
UACC-62 = tested on: UACC-62
HCT-116 = tested on: HCT-116
ACHN = tested on: ACHN
UO-31 = tested on: UO-31
RPMI-8226 = tested on: RPMI-8226
SK-OV-3 = tested on: SK-OV-3
LOX IMVI = tested on: LOX IMVI
SR = tested on: SR

Q: Which results are given for `C=C1C(=O)OC2C1C(=O)C/C(C)=C/CCC1(C)OC21` (configuration not stated)?
A: GI50 (NCI-H226): 15.8 µM (inactive); GI50 (HOP-62): 14.2 µM (inactive); GI50 (A498): 23.1 µM (inactive); GI50 (U-251): 19.5 µM (inactive); GI50 (PC-3): 18.1 µM (inactive); GI50 (SF-268): 19.6 µM (inactive); GI50 (BT-549): 23.3 µM (inactive); GI50 (SF-295): 52.7 µM (inactive); GI50 (HCC 2998): 18.9 µM (inactive); GI50 (OVCAR-8): 25.6 µM (inactive); GI50 (MDA-MB-231): 20.8 µM (inactive); GI50 (UACC-62): 25.5 µM (inactive); GI50 (HCT-116): 14.8 µM (inactive); GI50 (ACHN): 10.5 µM (inactive); GI50 (UO-31): 15.2 µM (inactive); GI50 (RPMI-8226): 12.3 µM (inactive); GI50 (SK-OV-3): 29.6 µM (inactive); GI50 (LOX IMVI): 2.47 µM (inactive); GI50 (SR): 3.33 µM (inactive)

Q: `C[C@@H]1C[C@H](O)[C@]2(O)O[C@@H]3C[C@@]4(C=O)[C@@H](CC=C5[C@@H]4CC[C@]4(C)[C@@H](C6=CC(=O)OC6)CC[C@]54O)C[C@H]3O[C@@H]2O1` was tested. Which GI50 (NCI-H226) did it give?
A: < 0.0191 µM (active)

Q: And the GI50 (HOP-62)?
A: < 0.0121 µM (active)

Q: And the GI50 (A498)?
A: < 0.01 µM (active)

Q: What about the GI50 (U-251) of the same compound?
A: < 0.0214 µM (active)

Q: What about the GI50 (PC-3) of the same compound?
A: 0.02 µM (active)

Q: What about the GI50 (SF-268) of the same compound?
A: 0.0103 µM (active)

Q: And the GI50 (BT-549)?
A: < 0.015 µM (active)

Q: And the GI50 (SF-295)?
A: < 0.0191 µM (active)

Q: And the GI50 (HCC 2998)?
A: 0.0678 µM (active)

Q: What about the GI50 (OVCAR-8) of the same compound?
A: < 0.0205 µM (active)

Q: What about the GI50 (MDA-MB-231) of the same compound?
A: 0.144 µM (active)

Q: What about the GI50 (UACC-62) of the same compound?
A: 0.0449 µM (active)

Q: What about the GI50 (HCT-116) of the same compound?
A: 0.0143 µM (active)

Q: What about the GI50 (ACHN) of the same compound?
A: < 0.01 µM (active)

Q: What about the GI50 (UO-31) of the same compound?
A: < 0.0247 µM (active)

Q: What about the GI50 (RPMI-8226) of the same compound?
A: < 0.018 µM (active)

Q: And the GI50 (SK-OV-3)?
A: 0.0426 µM (active)

Q: And the GI50 (LOX IMVI)?
A: 0.0176 µM (active)

Q: What about the GI50 (SR) of the same compound?
A: < 0.015 µM (active)

Q: Which results are given for `COC(=O)C1(Cc2cccc(C)c2)Cc2c(C)cccc2C1=O` (configuration not stated)?
A: GI50 (NCI-H226): 44.9 µM (inactive); GI50 (HOP-62): 59.6 µM (inactive); GI50 (A498): 34 µM (inactive); GI50 (U-251): 38.7 µM (inactive); GI50 (PC-3): 27.2 µM (inactive); GI50 (SF-268): 58.5 µM (inactive); GI50 (BT-549): 56.1 µM (inactive); GI50 (SF-295): 38.2 µM (inactive); GI50 (HCC 2998): 55.5 µM (inactive); GI50 (OVCAR-8): 80.7 µM (inactive); GI50 (MDA-MB-231): 52.8 µM (inactive); GI50 (UACC-62): 46.8 µM (inactive); GI50 (HCT-116): 36.4 µM (inactive); GI50 (ACHN): > 100 µM (inactive); GI50 (UO-31): 42.6 µM (inactive); GI50 (RPMI-8226): > 100 µM (inactive); GI50 (SK-OV-3): 58.6 µM (inactive); GI50 (LOX IMVI): 50.1 µM (inactive); GI50 (SR): > 100 µM (inactive)

Q: With `O=c1cc(CN2CCCCC2)nc2ccc3c(O)cc(CN4CCCCC4)nc3n12` as the compound, how does the GI50 (NCI-H226) read?
A: > 100 µM (inactive)

Q: What about the GI50 (HOP-62) of the same compound?
A: > 100 µM (inactive)

Q: What about the GI50 (A498) of the same compound?
A: > 100 µM (inactive)

Q: And the GI50 (U-251)?
A: > 100 µM (inactive)

Q: And the GI50 (PC-3)?
A: > 100 µM (inactive)

Q: What about the GI50 (SF-268) of the same compound?
A: > 100 µM (inactive)

Q: What about the GI50 (BT-549) of the same compound?
A: > 100 µM (inactive)

Q: And the GI50 (SF-295)?
A: > 100 µM (inactive)

Q: And the GI50 (HCC 2998)?
A: > 100 µM (inactive)

Q: And the GI50 (OVCAR-8)?
A: > 100 µM (inactive)

Q: What about the GI50 (MDA-MB-231) of the same compound?
A: > 100 µM (inactive)

Q: What about the GI50 (UACC-62) of the same compound?
A: > 100 µM (inactive)

Q: And the GI50 (HCT-116)?
A: > 100 µM (inactive)

Q: And the GI50 (ACHN)?
A: > 100 µM (inactive)

Q: And the GI50 (UO-31)?
A: > 100 µM (inactive)

Q: What about the GI50 (RPMI-8226) of the same compound?
A: > 100 µM (inactive)

Q: What about the GI50 (SK-OV-3) of the same compound?
A: 48.4 µM (inactive)

Q: What about the GI50 (LOX IMVI) of the same compound?
A: > 100 µM (inactive)

Q: What about the GI50 (SR) of the same compound?
A: > 100 µM (inactive)

Q: How did the GI50 (NCI-H226) turn out when `COC(OC)[C@@H]1OC[C@H](n2ccc(=O)[nH]c2=O)[C@H]1O` was run?
A: > 100 µM (inactive)

Q: And the GI50 (HOP-62)?
A: > 100 µM (inactive)

Q: What about the GI50 (A498) of the same compound?
A: > 100 µM (inactive)

Q: And the GI50 (U-251)?
A: > 100 µM (inactive)

Q: What about the GI50 (PC-3) of the same compound?
A: > 100 µM (inactive)

Q: What about the GI50 (SF-268) of the same compound?
A: > 100 µM (inactive)

Q: And the GI50 (BT-549)?
A: > 100 µM (inactive)

Q: What about the GI50 (SF-295) of the same compound?
A: > 100 µM (inactive)

Q: And the GI50 (HCC 2998)?
A: > 100 µM (inactive)

Q: And the GI50 (MDA-MB-231)?
A: > 100 µM (inactive)

Q: And the GI50 (UACC-62)?
A: > 100 µM (inactive)

Q: And the GI50 (HCT-116)?
A: > 100 µM (inactive)

Q: What about the GI50 (ACHN) of the same compound?
A: > 100 µM (inactive)

Q: And the GI50 (UO-31)?
A: > 100 µM (inactive)

Q: And the GI50 (RPMI-8226)?
A: > 100 µM (inactive)

Q: And the GI50 (SK-OV-3)?
A: > 100 µM (inactive)

Q: And the GI50 (LOX IMVI)?
A: > 100 µM (inactive)

Q: And the GI50 (SR)?
A: > 100 µM (inactive)

Q: `Clc1cc(Cl)nc(Nc2ccc3c(c2)CCC3)n1` was tested. Which GI50 (NCI-H226) did it give?
A: 45 µM (inactive)

Q: And the GI50 (A498)?
A: 31.3 µM (inactive)

Q: What about the GI50 (U-251) of the same compound?
A: 62.5 µM (inactive)

Q: And the GI50 (PC-3)?
A: 61.9 µM (inactive)

Q: And the GI50 (SF-268)?
A: 44.8 µM (inactive)

Q: And the GI50 (BT-549)?
A: 48.6 µM (inactive)

Q: And the GI50 (SF-295)?
A: 48.5 µM (inactive)

Q: What about the GI50 (HCC 2998) of the same compound?
A: 16.4 µM (inactive)

Q: What about the GI50 (OVCAR-8) of the same compound?
A: 72.3 µM (inactive)

Q: What about the GI50 (MDA-MB-231) of the same compound?
A: 51.3 µM (inactive)

Q: And the GI50 (UACC-62)?
A: 46.1 µM (inactive)

Q: And the GI50 (HCT-116)?
A: 28.6 µM (inactive)

Q: What about the GI50 (ACHN) of the same compound?
A: 35.1 µM (inactive)

Q: And the GI50 (UO-31)?
A: 41.4 µM (inactive)

Q: And the GI50 (RPMI-8226)?
A: 16.5 µM (inactive)

Q: And the GI50 (SK-OV-3)?
A: > 100 µM (inactive)

Q: And the GI50 (LOX IMVI)?
A: 32.1 µM (inactive)

Q: What about the GI50 (SR) of the same compound?
A: 30.3 µM (inactive)
